Data taken from patent US20130123107A1, “Use of Adjuvants to Improve Abscisic Acid Performance” (Valent BioSciences Corporation, priority 2007, published 2013).
Where a name gives a salt, the structure may show the parent alone.

System: tomato leaf transpiration
Test: tomato leaf transpiration inhibition bioassay
Type: in vivo, Tomato (variety: Rutgers)
Source text: The compositions of the present invention improve ABA effectiveness by incorporating a surfactant, and optionally a nitrogen-containing fertilizer together with an effective amount of the plant growth regulator abscisic acid (S-ABA; ABA; S-(+)-abscisic acid; +-ABA, (+)-(S)-cis, trans-abscisic acid, (+)-(S)-cis,trans-ABA; S-ABA; (S)-5-(1-hydroxy-2,6,6,-trimethyl-4-oxo-2-cyclohexen-1-yl)-3-methyl-(2Z,4E)-pentadienoic acid; CAS registry no, [21293-29-8]). ABA effectiveness may be measured experimentally by quantifying the inhibition of transpiration in tomato leaves. This is a reliable laboratory bioassay of the level of ABA activity.
Preparation of plant specimens for use in the treatment studies of the examples described was carried out as follows. Tomato (variety: Rutgers) seeds were sown in an 18-cell flat filled with Promix PGX (available from Premier Horticulture Inc. Quakertown, Pa.) and grown for 3 weeks to allow for germination and initial growth. Plants were then transplanted into pots (18 cm in diameter and 18 cm in height), filled with Promix BX (available from Premier Horticulture Inc. Quakertown, Pa.), and grown for one or two more weeks before treatment, depending on temperature and available light. Plants received daily irrigation and weekly fertilizer (1 g/L all purpose fertilizer 20-20-20, available from The Scotts Company, Marysville, Ohio).
All treatment solutions were prepared with distilled water, ABA (95% active ingredient) is available from Lomon BioTechnology Co., Ltd. (Shichuan, China). […]
Unless otherwise specified, when a surfactant was employed, it was incorporated into the 250-ppm ABA treatment solution at a concentration of 0.05% to 0.5% (v/v).
ABA solutions and blank treatments were applied to the aerial parts of tomato plant leaves at the rate of 20 mL per 6 plants. Plants were then placed in a transparent chamber with humidity controlled within the range of 40 to 60% relative humidity. Leaf transpiration rates were measured at 1, 2 and 3 days; at 1, 2, 3 and 4 days; or at 1, 2, 3, 4 and 7 days after treatment. Measurements were conducted using a LI-1600 Steady State Porameter (LI-Cor, Lincoln, Nebr.). Each day the transpiration rate of the plants of each treatment group was normalized to the percentage of the transpiration rate of untreated plants (plants sprayed with water only) in order to control for day-to-day variability caused by changes of environmental conditions such as light intensity and temperature. In some cases, data of each plant was averaged over a 3-day period to balance the short term and long-term effect of ABA on tomato leaf transpiration as well as to control for experimental variability.
All experiments were conducted using a randomized complete block experimental design. Data were analyzed by analysis of variance. Duncan's new multiple range tests at α-005 were used for mean separations.

CC1=CC(=O)CC(C)(C)[C@@]1(O)/C=C/C(C)=C\C(=O)O [ABA ammonium salt, Ammonium Salt of (S)-(+)-Abscisic Acid]
Transpiration rate (% of control) (250 ppm ABA or ABA ammonium salt, 1 day after treatment (Table 7)): 68 % of control
Transpiration rate (% of control) (250 ppm ABA or ABA ammonium salt, 2 days after treatment (Table 7)): 73 % of control
Transpiration rate (% of control) (250 ppm ABA or ABA ammonium salt, 3 days after treatment (Table 7)): 84 % of control
Transpiration rate (% of control), Average (250 ppm ABA or ABA ammonium salt, average of days 1-3 after treatment (Table 7)): 75 % of control
Transpiration rate (% of control) (250 ppm ABA or salt at rates equivalent to 250 ppm ABA, 1 day after treatment (Table 10)): 58 % of control
Transpiration rate (% of control) (250 ppm ABA or salt at rates equivalent to 250 ppm ABA, 2 days after treatment (Table 10)): 67 % of control
Transpiration rate (% of control) (250 ppm ABA or salt at rates equivalent to 250 ppm ABA, 3 days after treatment (Table 10)): 78 % of control
Transpiration rate (% of control), Average (250 ppm ABA or salt at rates equivalent to 250 ppm ABA, average of days 1-3 (Table 10)): 68 % of control
